Experiment in all cases: KinomeScan profiling
Common to all, as to format: binding

The target in experiment [1] is T1, ADCK3 (Homo sapiens, UniProt Q8NI60).
T1 construct: purchased KinomeScan®
Particulars: ADCK3, 1 μM; read-out: % control. An outline of the steps:
(§1)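 Luminescence (RLU) was converted to percent of control, with DMSO set as 100% and a reference compound as 0%. Test compounds were run at 1 μM against 468 kinases. Kinases showing below 35% of control were scored as bound.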

Experiment [2] has as its target CLK2 (Homo sapiens, UniProt P49760). The conditions noted are these: CLK2, 1 μM; read-out: % control. In outline: as §1
Experiment [3] deals with DAPK1 (Homo sapiens, UniProt P53355). Particulars: DAPK1, 1 μM; read-out: % control. In outline:
as §1

Experiment [4] concerns the target EGFR(L747-S752del, P753S) (Homo sapiens, UniProt P00533, DEL747-752/P753S). The conditions noted are these: read-out: % control. In outline:
as §1

The target of experiment [5] is T2, EPHB6 (Homo sapiens, UniProt O15197).
T2 sequence (O15197 32-1021): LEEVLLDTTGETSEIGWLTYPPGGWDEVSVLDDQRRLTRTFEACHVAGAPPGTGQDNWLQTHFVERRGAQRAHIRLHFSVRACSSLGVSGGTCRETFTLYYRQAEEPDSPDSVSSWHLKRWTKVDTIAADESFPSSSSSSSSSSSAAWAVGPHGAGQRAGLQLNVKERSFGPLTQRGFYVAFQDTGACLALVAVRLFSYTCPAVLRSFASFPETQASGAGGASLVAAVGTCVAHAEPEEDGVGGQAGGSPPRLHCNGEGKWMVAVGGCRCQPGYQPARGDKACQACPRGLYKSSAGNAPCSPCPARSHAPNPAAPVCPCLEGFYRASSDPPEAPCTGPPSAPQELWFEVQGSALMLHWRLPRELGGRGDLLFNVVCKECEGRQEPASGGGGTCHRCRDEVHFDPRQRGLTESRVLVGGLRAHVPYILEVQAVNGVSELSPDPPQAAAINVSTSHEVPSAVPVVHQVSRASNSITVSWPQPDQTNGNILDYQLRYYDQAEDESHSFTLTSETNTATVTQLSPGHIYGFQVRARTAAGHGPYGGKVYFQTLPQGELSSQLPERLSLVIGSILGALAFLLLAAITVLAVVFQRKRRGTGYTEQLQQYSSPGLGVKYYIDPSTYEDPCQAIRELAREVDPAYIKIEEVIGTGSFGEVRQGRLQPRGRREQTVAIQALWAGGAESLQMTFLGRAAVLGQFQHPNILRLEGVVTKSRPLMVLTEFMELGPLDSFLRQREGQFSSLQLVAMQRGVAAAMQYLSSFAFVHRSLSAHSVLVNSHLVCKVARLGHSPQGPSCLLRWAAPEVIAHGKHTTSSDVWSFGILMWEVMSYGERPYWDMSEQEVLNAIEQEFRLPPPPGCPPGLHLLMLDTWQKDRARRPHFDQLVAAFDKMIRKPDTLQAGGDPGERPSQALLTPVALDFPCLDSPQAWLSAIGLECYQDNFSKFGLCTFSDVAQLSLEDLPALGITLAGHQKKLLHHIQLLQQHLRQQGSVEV
The conditions noted are these: EPHB6, 1 μM; read-out: % control. An outline of the steps: as §1

The target in experiment [6] is FGFR4 (Homo sapiens, UniProt P22455). Particulars: FGFR4, 1 μM; read-out: % control. An outline of the steps:
as §1

Experiment [7] has as its target MARK3 (Homo sapiens, UniProt P27448). Particulars: MARK3, 1 μM; read-out: % control. In outline:
as §1

In experiment [8] the target is MEK1 (Homo sapiens, UniProt Q02750). The conditions noted are these: MEK1, 1 μM; read-out: % control. An outline of the steps: as §1
In experiment [9] the target is MINK (Homo sapiens, UniProt Q8N4C8). Particulars: read-out: % control. An outline of the steps:
as §1

Experiment [10] addresses PAK3 (Homo sapiens, UniProt O75914). Particulars: PAK3, 1 μM; read-out: % control. An outline of the steps: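 The panel spans 468 kinases, and each inventive compound was applied at 1 μM from DMSO. Lower % control means stronger binding; the activity cut-off is set at less than 35%.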
Experiment [11] concerns the target PCTK2 (Homo sapiens, UniProt Q00537). The conditions noted are these: PCTK2, 1 μM; read-out: % control. An outline of the steps: as §1
For experiment [12], the target named is T3, PIK3CA(H1047Y) (Homo sapiens, UniProt P42336, H1047Y).
T3 construct: purchased KinomeScan® (panel service)
The conditions noted are these: read-out: % control. An outline of the steps:
as §1

In experiment [13] the target is PRKCQ (Homo sapiens, UniProt Q04759). The conditions noted are these: read-out: % control. An outline of the steps: as §1
The target of experiment [14] is T4, SRPK2 (Homo sapiens, UniProt P78362).
T4 construct: purchased KinomeScan® (panel service)
Particulars: SRPK2, 1 μM; read-out: % control. An outline of the steps:
as §1

Experiment [15] addresses ZAK (Homo sapiens, UniProt Q9NYL2). The conditions noted are these: read-out: % control. An outline of the steps:
as §1

Chain of CLK2 (P49760 whole entry): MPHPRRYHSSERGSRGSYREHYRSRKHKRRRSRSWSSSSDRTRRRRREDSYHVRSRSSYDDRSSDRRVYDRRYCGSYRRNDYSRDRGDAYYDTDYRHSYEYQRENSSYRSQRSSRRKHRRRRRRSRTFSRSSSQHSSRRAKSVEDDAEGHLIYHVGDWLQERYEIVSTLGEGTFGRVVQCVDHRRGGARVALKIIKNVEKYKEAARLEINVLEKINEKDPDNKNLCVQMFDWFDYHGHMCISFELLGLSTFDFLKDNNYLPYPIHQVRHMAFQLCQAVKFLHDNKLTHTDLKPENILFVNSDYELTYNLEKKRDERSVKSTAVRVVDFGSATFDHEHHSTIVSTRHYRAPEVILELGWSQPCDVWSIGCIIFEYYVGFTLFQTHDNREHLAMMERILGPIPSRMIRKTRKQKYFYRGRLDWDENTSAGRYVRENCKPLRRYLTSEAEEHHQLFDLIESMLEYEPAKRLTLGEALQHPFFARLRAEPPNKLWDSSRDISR
Chain of MARK3 (P27448 whole entry): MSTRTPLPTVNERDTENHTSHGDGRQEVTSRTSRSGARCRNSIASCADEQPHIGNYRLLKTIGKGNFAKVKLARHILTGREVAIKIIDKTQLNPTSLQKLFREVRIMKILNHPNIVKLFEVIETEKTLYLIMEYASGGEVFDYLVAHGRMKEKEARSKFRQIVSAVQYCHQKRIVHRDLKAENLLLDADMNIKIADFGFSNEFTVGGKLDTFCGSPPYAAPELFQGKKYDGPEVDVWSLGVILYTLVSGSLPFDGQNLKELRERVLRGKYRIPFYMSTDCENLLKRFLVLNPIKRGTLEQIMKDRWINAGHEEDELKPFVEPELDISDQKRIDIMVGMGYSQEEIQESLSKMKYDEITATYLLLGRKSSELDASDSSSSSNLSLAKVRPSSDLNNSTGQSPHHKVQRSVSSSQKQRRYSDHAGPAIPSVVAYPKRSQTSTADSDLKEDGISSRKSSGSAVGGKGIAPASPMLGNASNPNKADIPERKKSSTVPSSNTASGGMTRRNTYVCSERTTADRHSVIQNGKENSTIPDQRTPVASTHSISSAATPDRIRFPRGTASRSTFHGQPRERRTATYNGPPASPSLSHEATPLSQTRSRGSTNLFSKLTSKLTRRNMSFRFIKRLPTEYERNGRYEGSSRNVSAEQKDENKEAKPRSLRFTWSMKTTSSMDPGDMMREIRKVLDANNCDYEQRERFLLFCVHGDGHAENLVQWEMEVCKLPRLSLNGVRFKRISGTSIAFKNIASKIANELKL
T4 sequence (P78362 whole entry): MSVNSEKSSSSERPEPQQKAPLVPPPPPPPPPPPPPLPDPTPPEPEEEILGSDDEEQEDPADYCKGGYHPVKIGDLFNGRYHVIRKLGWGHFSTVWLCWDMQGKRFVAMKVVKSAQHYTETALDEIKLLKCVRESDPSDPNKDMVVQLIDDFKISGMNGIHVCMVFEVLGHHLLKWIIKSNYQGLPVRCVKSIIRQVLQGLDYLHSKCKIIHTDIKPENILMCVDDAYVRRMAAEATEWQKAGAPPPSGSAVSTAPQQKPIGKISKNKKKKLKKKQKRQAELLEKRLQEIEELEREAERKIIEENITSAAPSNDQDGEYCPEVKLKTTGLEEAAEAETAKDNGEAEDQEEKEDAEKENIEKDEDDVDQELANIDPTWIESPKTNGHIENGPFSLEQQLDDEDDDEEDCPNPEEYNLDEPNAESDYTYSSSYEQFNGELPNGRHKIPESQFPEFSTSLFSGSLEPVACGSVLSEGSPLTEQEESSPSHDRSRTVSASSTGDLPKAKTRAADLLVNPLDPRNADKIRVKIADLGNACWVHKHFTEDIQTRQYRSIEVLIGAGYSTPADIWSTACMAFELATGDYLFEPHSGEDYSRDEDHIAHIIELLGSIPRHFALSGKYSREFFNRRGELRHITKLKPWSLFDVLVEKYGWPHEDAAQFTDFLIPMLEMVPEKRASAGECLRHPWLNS
Chain of PRKCQ (Q04759 whole entry): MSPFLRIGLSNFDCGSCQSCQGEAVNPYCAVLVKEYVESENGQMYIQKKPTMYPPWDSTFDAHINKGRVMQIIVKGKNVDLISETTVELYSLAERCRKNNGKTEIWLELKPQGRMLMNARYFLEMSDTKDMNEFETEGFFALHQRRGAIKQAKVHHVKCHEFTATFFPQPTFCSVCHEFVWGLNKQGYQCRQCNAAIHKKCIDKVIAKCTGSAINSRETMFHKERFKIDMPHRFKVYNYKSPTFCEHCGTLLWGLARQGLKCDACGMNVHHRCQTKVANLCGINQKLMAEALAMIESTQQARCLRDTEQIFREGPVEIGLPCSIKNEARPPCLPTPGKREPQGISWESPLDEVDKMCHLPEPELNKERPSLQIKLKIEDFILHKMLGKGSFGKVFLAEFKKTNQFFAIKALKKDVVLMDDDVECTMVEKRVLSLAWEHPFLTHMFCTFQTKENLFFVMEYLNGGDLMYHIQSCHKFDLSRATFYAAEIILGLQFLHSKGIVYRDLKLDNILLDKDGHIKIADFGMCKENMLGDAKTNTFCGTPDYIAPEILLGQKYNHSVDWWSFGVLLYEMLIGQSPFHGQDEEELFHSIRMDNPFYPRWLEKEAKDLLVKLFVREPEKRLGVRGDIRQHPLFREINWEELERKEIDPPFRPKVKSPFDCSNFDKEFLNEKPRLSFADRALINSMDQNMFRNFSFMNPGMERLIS
Chain of PCTK2 (Q00537 whole entry): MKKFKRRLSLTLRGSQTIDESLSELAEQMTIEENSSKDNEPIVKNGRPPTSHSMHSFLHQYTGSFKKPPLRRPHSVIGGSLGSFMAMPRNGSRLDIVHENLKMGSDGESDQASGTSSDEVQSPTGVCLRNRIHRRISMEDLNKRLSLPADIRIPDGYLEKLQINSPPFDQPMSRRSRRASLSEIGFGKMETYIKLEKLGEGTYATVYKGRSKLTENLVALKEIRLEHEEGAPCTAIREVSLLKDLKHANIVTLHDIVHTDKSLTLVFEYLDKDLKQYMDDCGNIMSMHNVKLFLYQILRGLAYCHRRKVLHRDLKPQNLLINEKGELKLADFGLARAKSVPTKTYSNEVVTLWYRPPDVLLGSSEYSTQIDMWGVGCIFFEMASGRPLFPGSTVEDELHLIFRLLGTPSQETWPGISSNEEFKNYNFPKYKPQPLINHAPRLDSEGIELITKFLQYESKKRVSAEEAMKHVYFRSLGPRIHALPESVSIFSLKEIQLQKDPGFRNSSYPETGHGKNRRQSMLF
Chain of EGFR(L747-S752del, P753S) (P00533 with tags, fused parts or gaps DEL747-752/P753S): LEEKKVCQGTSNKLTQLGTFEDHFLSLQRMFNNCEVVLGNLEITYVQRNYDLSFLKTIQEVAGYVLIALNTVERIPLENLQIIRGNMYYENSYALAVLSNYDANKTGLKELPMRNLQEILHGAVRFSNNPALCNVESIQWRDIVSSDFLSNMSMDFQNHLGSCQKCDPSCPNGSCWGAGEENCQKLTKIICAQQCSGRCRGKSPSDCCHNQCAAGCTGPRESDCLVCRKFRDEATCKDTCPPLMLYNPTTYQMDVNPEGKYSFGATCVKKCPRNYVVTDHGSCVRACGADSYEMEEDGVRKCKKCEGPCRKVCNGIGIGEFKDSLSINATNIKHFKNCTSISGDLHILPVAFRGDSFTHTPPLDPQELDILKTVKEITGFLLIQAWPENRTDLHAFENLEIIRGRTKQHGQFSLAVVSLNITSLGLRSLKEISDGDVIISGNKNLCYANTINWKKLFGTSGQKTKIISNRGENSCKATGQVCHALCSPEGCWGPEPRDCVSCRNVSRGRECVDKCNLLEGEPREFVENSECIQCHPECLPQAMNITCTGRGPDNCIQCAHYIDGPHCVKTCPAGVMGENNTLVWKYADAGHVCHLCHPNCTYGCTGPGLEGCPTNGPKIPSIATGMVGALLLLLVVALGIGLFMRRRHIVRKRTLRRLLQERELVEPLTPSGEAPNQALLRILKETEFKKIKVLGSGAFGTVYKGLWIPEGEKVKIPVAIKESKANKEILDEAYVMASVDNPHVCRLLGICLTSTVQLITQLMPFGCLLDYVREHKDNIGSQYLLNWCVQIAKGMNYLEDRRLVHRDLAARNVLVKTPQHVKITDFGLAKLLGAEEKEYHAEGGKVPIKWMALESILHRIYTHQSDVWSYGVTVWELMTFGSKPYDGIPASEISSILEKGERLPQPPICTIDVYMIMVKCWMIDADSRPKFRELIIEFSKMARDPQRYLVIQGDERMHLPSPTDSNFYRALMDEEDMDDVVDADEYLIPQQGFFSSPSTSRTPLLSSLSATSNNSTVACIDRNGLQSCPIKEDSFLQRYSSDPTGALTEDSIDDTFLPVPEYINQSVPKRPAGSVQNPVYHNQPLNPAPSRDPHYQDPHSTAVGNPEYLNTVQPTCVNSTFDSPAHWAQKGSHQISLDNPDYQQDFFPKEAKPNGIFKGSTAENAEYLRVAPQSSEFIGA
T1 sequence (Q8NI60 163-647): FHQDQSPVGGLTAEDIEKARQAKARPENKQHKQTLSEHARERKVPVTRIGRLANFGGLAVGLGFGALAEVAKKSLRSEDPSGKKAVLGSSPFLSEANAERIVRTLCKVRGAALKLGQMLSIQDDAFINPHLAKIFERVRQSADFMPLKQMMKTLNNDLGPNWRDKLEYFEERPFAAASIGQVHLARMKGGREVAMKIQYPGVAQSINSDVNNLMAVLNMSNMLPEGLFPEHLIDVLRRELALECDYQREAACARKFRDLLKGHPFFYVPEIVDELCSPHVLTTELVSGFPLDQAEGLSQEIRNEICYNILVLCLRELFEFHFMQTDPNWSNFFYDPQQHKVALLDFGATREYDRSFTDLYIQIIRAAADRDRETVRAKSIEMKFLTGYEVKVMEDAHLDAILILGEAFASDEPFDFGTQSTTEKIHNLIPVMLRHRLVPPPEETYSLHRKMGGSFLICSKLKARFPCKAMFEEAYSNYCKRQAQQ

In the case of `CNc1c(-c2ccc(C(=O)N3CCC(N4CCOCC4)CC3)cc2)cnc2[nH]cc(Cl)c12` [Compound 96, (4-(3-chloro-4-(methylamino)-1H-pyrrolo[2,3-b]pyridin-5-yl)phenyl)(4-morpholinopiperidin-1-yl)methanone], the remaining binding at 1 µM turned out to be 100% in [1]; 11% in [2]; 74% in experiment [3]; 77% in [4]; 99% in experiment [5]; 59% in experiment [6]. Also, the remaining binding at 1 µM in [7] is 84%; in [8] it was 12%; in experiment [9], 6%; in experiment [10], 74%; in experiment [11], 97%; in experiment [12] it was 84%. Further, the remaining binding at 1 µM in experiment [13] is 76%; in experiment [14], 16%; in experiment [15] it was 75%.

In the case of `O=C(c1ccc(-c2cnc3[nH]cc(Cl)c3c2NC2CCCC2)cc1)N1CCC(N2CCOCC2)CC1` [Compound 101, (4-(3-chloro-4-(cyclopentylamino)-1H-pyrrolo[2,3-b]pyridin-5-yl)phenyl)(4-morpholinopiperidin-1-yl)methanone], the remaining binding at 1 µM in experiment [1] turned out to be 68%; in [2], 65%; in experiment [3] it was 80%; in [4], 100%; in [5], 100%; in [6], 85%. Moreover, the remaining binding at 1 µM in [7] was found to be 89%; in experiment [8], 94%; in experiment [9], 62%; in [10], 86%; in experiment [11], 96%; in experiment [12], 100%. Besides, the remaining binding at 1 µM stood at 45% in experiment [13], 60% in experiment [14] and 86% in experiment [15].

Take `CNc1c(-c2cnn([C@H]3CCN(C(C)=O)C[C@@H]3F)c2)cnc2[nH]cc(Cl)c12` [Compound 77, 1-((3S,4S)-4-(4-(3-chloro-4-(methylamino)-1H-pyrrolo[2,3-b]pyridin-5-yl)-1H-pyrazol-1-yl)-3-fluoropiperidin-1-yl)ethan-1-one]: the remaining binding at 1 µM in [1] stood at 100%; in experiment [2] it was 57%; in experiment [3], 73%; in experiment [4], 92%; in [5], 55%; in experiment [6], 61%. Besides, the remaining binding at 1 µM is 82% in experiment [7]; 29% in experiment [8]; 17% in [9]; 97% in experiment [10]; 100% in experiment [11]; 70% in experiment [12]. The remaining binding at 1 µM came out at 91% in [13], 12% in experiment [14] and 70% in experiment [15].

(Values after US12275731B2, “Azaindole inhibitors of wild-type and mutant forms of LRRK2” (DANA-FARBER CANCER INSTITUTE, INC., priority 2018, dated 2025).)
